Experiment [1] addresses T1, Gly137Asp LcαE7 (Gly137Asp variant of αE7 carboxylesterase) (Lucilia cuprina, UniProt Q25252, G137D).
T1 construct: GenBank number is of the wild-type parent
Briefly: Inhibition of Gly137Asp αE7 (competition assay, hydrolysis of 4-nitrophenol butyrate), dose-response curves of FIG. 8. Format: biochemical. On the procedure: FIG. 8 presents dose-response curves for the inhibition of Glyl37Asp αE7. Inhibition of the hydrolysis of […] was determined for phenyl boronic acid (PBA) and compounds 1-5 and 3.1-3.12. Three (technical) replicate measurements of enzyme activity were performed for each concentration of boronic acid. The concentration of boronic acid required to inhibit 50% of activity (IC50) was determined by fitting a sigmoidal dose-response curve to plots of percentage inhibition. The curve was constrained to 0 (bottom) and 100% (top) inhibition with a variable Hill slope. […]
His6-tagged proteins were expressed in BL21(DE3) E. coli (Invitrogen) at 26° C. for 18 hours. Cells were collected by centrifugation, resuspended in lysis buffer (300 mM NaCl, 10 mM imidazole, 50 mM HEPES pH 7.5) and lysed by sonication. Cell debris was pelleted by centrifugation and the soluble fraction was loaded onto a HisTrap-HP Ni-Sepharose column (GE Healthcare). Bound protein was eluted with lysis buffer supplemented with 300 mM imidazole. Fractions containing the eluted protein were concentrated with a 30 kDa molecular mass cutoff centrifuge concentrator (Amicon) and loaded onto a HiLoad 26/60 Superdex-200 size-exclusion column (GE Healthcare) pre-equilibrated with 150 mM NaCl, 20 mM HEPES pH 7.5. Eluted fractions containing the monomeric protein were pooled for enzyme inhibition assays or crystallization. Protein concentration was determined by measuring the absorbance at 280 nm with an extinction coefficient calculated using the Protparam online server (Gasteiger, E. et al. Protein identification and analysis tools on the ExPASy server. Proteomics Protoc. Handb. 571-607 (2005). doi:10.1385/1-59259-890-0:571).
Inhibition of wild-type αE7 and the Gly137Asp αE7 variant was determined by a competition assay between the native-substrate analogue 4-nitrophenol butyrate (Sigma) and the boronic acid compounds. Initially, the Michalis constant (KM) with 4-nitrophenol butyrate was measured for both enzymes to determine an appropriate concentration of substrate for use in the competition assays. Formation of the 4-nitrophenolate product of hydrolysis was monitored at 405 nm in the presence of enzyme and eight different concentrations of substrate. 4-nitrophenol butyrate was prepared in methanol to 100 mM and serially diluted 1-in-2 to achieve concentrations from 100 mM to 0.8 mM. Enzyme stocks were prepared in 4 mg/ml bovine serum albumin (Sigma) to maintain enzyme stability. Reactions were prepared by pipetting 178 μl assay buffer (100 mM NaCl, 20 mM HEPES pH 7.5) and 2 μl substrate (final concentrations of 1000 to 8 μM) into 300 μl wells of a 96-well plate. The reaction was initiated by the addition of 20 μl enzyme (final concentration 2.5 nM for wildtype αE7 and 4 nM for Gly137Asp αE7). Product formation was monitored for four minutes at room temperature using an Epoch microplate spectrophotometer (BioTek) and the initial rates of ester hydrolysis were determined by linear regression using GraphPad Prism. The Michalis constant was determined by fitting the initial rates to the Michalis-Menton equation (FIG. 10).
Enzyme inhibition with the boronic acid compounds was determined by assaying the initial rate of 4-nitrophenol butyrate hydrolysis in the presence of either neat DMSO or the boronic acid compounds in DMSO. Compounds were prepared by serially diluting 1-in-3 an initial 10 mM stock to achieve concentrations from 10 mM to 2 nM. Reactions were prepared by pipetting 178 μl assay buffer supplemented with substrate to a final concentration equal to the KM of the enzyme (15 μM for wildtype αE7 and 250 μM for Gly137Asp αE7) into wells of a 96-well plate. 2 μl neat DMSO or 2 μl serially diluted inhibitor (final concentrations of 100 μM to 20 pM) were added to the wells. The reaction was initiated by the addition of 20 μl enzyme (final concentration 0.5 nM for wildtype αE7 and 10 nM for Glyl37Asp αE7). […]

In experiment [2] the test system is Lucilia cuprina larvae, laboratory drug-susceptible strain LS. In words: Lucilia cuprina larval bioassay (pupation rate), laboratory strain. Format: in vivo. The note with it: for synergism with diazinon (in words): susceptible strain. The method, then: Inhibitor efficacy was determined by treating larvae with diazinon over a range of concentrations, in the presence or absence of the compounds at constant concentrations, and comparing pupation rates.
Two strains of L. cuprina were used: 1) a laboratory reference drug-susceptible strain, LS, derived from collections in the Australian Capital Territory over 40 years ago, with no history of exposure to insecticides; and 2) a field-collected strain, Tara, resistant to diazinon and diflubenzuron (Levot, G. W. & Sales, N. New high level resistance to diflubenzuron detected in the Australian sheep blowfly, Lucilia cuprina (Wiedemann) (Diptera: Calliphoridae). Gen. Appl. Entomol. 31, 43-46 (2002)). The LcαE7 gene was sequenced in each of the strains. Briefly, genomic DNA was prepared from 20 adult female flies from each strain using the DNeasy Blood and Tissue kit (Qiagen). PCR was performed with primers specific to the LcαE7 gene, and the product was cloned into a pGEM-T EASY vector (Promega). Eight clones of the susceptible strain and 10 clones of the resistant strain were sequenced using M13 forward and reverse primers.
Each experiment utilized 50 larvae at each diazinon/malathion concentration. Experiments were replicated three times for diazinon, and twice for malathion. The insecticidal effects were defined by measuring the pupation rate. […] Compounds were also without diazinon or malathion at 1 mg per assay.

The test system of another experiment is 293T. Briefly: Cell toxicity panel, viability (luminescence). Format: cell-based. The note with it: Homo sapiens, HEK-293T; Readout: Luminescence; read-out: IC50 Viability Cells, Cell line: 293T. The method, then: To further establish the safety and cell toxicity of compounds according to this invention, their IC50 in killing a broad panel of human cell lines (including both cancerous and non-cancerous) cell lines was determined, and their cell toxicity was tested.

T1 sequence (Q25252 entry or part of it G137D): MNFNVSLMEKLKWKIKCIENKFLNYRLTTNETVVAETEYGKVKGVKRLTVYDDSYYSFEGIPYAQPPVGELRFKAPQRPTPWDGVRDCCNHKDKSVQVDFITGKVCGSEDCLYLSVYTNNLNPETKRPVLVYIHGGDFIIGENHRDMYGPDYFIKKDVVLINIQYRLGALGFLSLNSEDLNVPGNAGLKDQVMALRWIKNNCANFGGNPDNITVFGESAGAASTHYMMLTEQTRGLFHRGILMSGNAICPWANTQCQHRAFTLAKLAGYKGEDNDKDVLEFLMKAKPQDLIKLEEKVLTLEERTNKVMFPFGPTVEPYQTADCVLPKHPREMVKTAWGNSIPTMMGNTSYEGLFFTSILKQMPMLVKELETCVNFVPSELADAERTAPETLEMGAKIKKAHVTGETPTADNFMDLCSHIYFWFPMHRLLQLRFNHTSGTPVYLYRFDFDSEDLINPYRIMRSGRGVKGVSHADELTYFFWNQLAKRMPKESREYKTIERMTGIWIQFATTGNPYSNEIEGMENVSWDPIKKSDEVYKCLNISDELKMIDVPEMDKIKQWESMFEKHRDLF

Take `OB(O)c1cc(Br)c2ccccc2c1F` [Compound 3.6]: in experiment [1], the IC50 (as a rule, the concentration that gives 50% inhibition) was 140 nM.
Regarding `OB(O)c1cc(Br)cc(Oc2ccccc2)c1` [Compound 3.10, 3-Bromo-5-phenoxyfenylboronic acid], the “reduction of malathion EC50 compared to a malathion only control” value in experiment [2] (laboratory strain) came to 16 fold. Also, the “synergism with diazinon (in words)” value in experiment [2] was “synergism was observed”.
Take `CC(C)(C)Oc1ccc(B(O)O)cc1Br` [Compound 3.12]: in experiment [1], the IC50 came to 1900 nM.
As to `OB(O)c1cc(Br)cc(OCc2ccccc2)c1` [Compound 3.9], the “synergism with diazinon (in words)” value in experiment [2] was “synergism was observed”. In addition, in the experiment on 293T, the IC50 was greater than 99.8 µM.
In the case of `Cc1ccc(B(O)O)cc1OCc1ccccc1` [Compound 2], the IC50 in experiment [1] was found to be 57 nM; in the experiment with 293T it was 42.9 µM. The “synergism with diazinon (in words)” value in experiment [2] was “No synergism was observed”.
Consider `OB(O)c1ccccc1` [PBA, phenylboronic acid, reference compound], for which the IC50 in experiment [1] was 880 nM.
With `OB(O)c1cc(Br)cc(OC(F)(F)F)c1` [Compound 3.8], the IC50 in experiment [1] is 210 nM.
In experiment [1], `OB(O)c1cc(Br)cc(N2CCCCC2)c1` [Compound 3.3] returned an IC50 of 290 nM.
Take `OB(O)c1cc(Br)cc(N2CCCC2)c1` [Compound 3]: the IC50 was 220 nM in experiment [1] and greater than 99.8 µM with 293T. Also, the “synergism with diazinon (in words)” value in experiment [2] was “synergism was observed”.
In the case of `OB(O)c1ccc(OCc2ccccc2F)c(Cl)c1` [Compound 5, 3-Chloro-4(2′-fluorobenzyloxy) phenylboronic acid], the IC50 in experiment [1] came out at 320 nM; with 293T, 90.3 µM. Also, the “synergism with diazinon (in words)” value in experiment [2] is listed as “No synergism was observed”.
In the case of `CN1CCN(c2cc(Br)cc(B(O)O)c2)CC1` [Compound 3.4], the IC50 in experiment [1] stood at 2000 nM.
In experiment [1], `OB(O)c1cc(Br)cc2c1OCC2` [Compound 3.5] showed an IC50 of 850 nM.
Turning to `OB(O)c1cc(Br)cc(N2CCOCC2)c1` [Compound 3.1], the IC50 in experiment [1] amounted to 840 nM. For the same compound, the “reduction of diazinon EC50 compared to a diazinon only control” value in experiment [2] (susceptible laboratory strain) amounted to 5.7 fold.
`O=C(c1cc(Cl)cc(B(O)O)c1)N1CCOCC1` [Compound 3.11] showed a 50% inhibitory concentration (IC50) in experiment [1] of 2000 nM.
For `CC(C)Oc1cc(Br)cc(B(O)O)c1` [Compound 3.7, 3-Bromo-5-isopropoxyphenylboronic acid], the IC50 in experiment [1] was 150 nM.
Regarding `OB(O)c1ccc2ccccc2c1` [Compound 4], the IC50 in experiment [1] was 370 nM; with 293T, greater than 99.8 µM.
`Cc1ccc(B(O)O)cc1Br` [Compound 1]: the IC50 in experiment [1] is 95 nM; in the experiment with 293T, greater than 99.8 µM.

Values taken from patent US20190327974A1, “SYNERGISTS FOR IMPROVED PESTICIDES” (priority 2017, published 2019).
